The source of these data is patent EP2561886A1, “Peptide adjuvant for improved peripheral analgesia” (Forschungsverbund Berlin e.V., priority 2011, dated 2013).

In assay [1] the test system is Caco-2 cell monolayers. Briefly: Transcellular electrical resistance (TER) of Caco-2 cell monolayers. It is filed as cell-based, human. To be noted: for transcellular electrical resistance (TER): 300 µM. The method, then:
(§1) Measurements of Transcellular Electrical Resistance (TER) and Paracellular Permeability. 24-well transwell filters (Millicell-CM, Millipore, Eschborn, Germany) were coated with rat tail collagen (250 µg/cm^2) for 16 h, washed twice with PBS (phosphate buffer saline) and preincubated with DMEM (600 µl basolateral, 400 µl apical for Endohm electrodes and 400 µl basolateral, 500 µl apical for the cellZscope system (nanoAnalytics GmbH, Münster, Germany)) for 24 h. Caco-2 cells (200.000 cell/cm^2) were seeded into the filters and grown to high-resistance TER (> 500 Ω/cm^2) for approx. 4 days. Medium was changed every day.
The experiments were performed as followed: After reaching high and stable TER values, cell monolayers were treated with peptides as described above. Control cells were incubated with respective medium. The TER values were measured at distinct time intervals. For re-arrangement of the monolayer, C1C2 was removed from the Caco-2 cells by exchange of the medium.

For assay [2], the system named is Caco-2 cell monolayers. In words: Paracellular permeability (permeation coefficient of FD-10 and Lucifer Yellow) of Caco-2 cell monolayers. To be noted: for permeation of FD-10: FD-10 (10 kDa); for permeation of FD-10 / permeation of Lucifer Yellow: 48 h after peptide administration; for permeation of Lucifer Yellow: Lucifer Yellow (0.4 kDa); for Paracellular Permeability: summary table of claudin-derived peptides. It counts as cell-based, human. Set-up: key to Paracellular Permeability: ↑ : increase; -: no change. Here is the method:
as §1
The permeation studies were performed by addition of 25 µg/ml Lucifer Yellow (0.4 kDa) or FD-10 (fluorescein isothiocyanate-dextran, 10 kDa) in HBSS (Hank's balanced salt solution buffer) on the apical side and HBSS alone on the basolateral side. After 10 min, 100 µl probes were removed from the basolateral side and the fluorescence units were measured by a fluorescence plate reader (Tecan, Crailsheim, Germany) to calculate the PCoeff (permeation coefficient, cm/s). The obtained data were analyzed with GraphPad Prism 3.0 program (GraphPad Software, San Diego, USA).

The subject of assay [3] is perineurium of the sciatic nerve. Briefly: Mechanical nociceptive thresholds (paw pressure threshold, modified Randall-Selitto test) after perineurial injection at the sciatic nerve. It is filed as in vivo, Male Wistar rats. To be noted: for Mechanical nociceptive thresholds (PPT) after injection of TTX: 10 µM TTX perineurially after peptide pretreatment (C1C2: 24-48 h); for mechanical nociceptive thresholds before the injection of DAMGO (Baseline) / mechanical nociceptive thresholds in contralateral paws: 400 µM peptide perineurially; for mechanical nociceptive thresholds in contralateral paws: contralateral paw. From the text: Animals. Animal protocols were approved by the animal care committee of the Regierung von Unterfranken and are in accordance with the International Association for the Study of Pain (44). Male Wistar rats weighing 180-220 g were used.
(§2) Perineurial Injection at the Sciatic Nerve. Nociceptive inputs from the rat hind paw travels through the sciatic nerve. Under brief isoflurane anesthesia, the right sciatic nerve was located using a 22 G needle connected to a nerve stimulator (Stimuplex Dig RC; Braun, Melsungen, Germany) as previously described (45). The needle was advanced to the point of maximal stimulation at 0.2 mA. 300 µl of the indicated substances was injected. If more than one injection within half hour was necessary the total injected volume was maintained at 300 µl.
(§3) Peptides were dissolved in 0.9% NaCl and injected perineurially in the indicated concentrations. Measurements (nociceptive thresholds, tissue harvest for Western blot or immunohistochemistry) were undertaken 24-96 h after peptide injection.
Measurements of Nociceptive Thresholds. Mechanical thresholds were determined using the paw pressure algesiometer (modified Randall-Selitto test; Ugo Basile, Comerio, Italy) as described before (47). The pressure required to elicit paw withdrawal, the paw pressure threshold (PPT), was determined in blinded experiments. Averages were calculated from three measurements each. An increase in PPT was interpreted as antinociception (analgesia), a decrease in PPT was interpreted as hyperalgesia (pain). Measurements were taken 10-60 min after injection of 100 µl containing 30 µg DAMGO or 10 µM TTX. The optimal doses of DAMGO or TTX have been evaluated in pilot studies (data not shown), but are similar to doses used for intraplantar injection in rats.

Assay [4] concerns the target T1, claudin-1 (Homo sapiens, UniProt O95832).
T1 construct: Caco-2 cells express several TJ proteins; endogenous in cells; host or cells: Caco-2
T1 sequence (O95832 1-211): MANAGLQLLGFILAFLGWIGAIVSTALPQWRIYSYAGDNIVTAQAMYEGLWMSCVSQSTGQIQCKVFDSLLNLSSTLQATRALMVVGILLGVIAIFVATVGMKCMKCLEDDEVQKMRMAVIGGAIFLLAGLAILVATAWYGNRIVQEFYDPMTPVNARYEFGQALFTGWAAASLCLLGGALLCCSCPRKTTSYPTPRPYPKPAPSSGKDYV
Briefly: Immunocytochemistry of claudin-1 and ZO-1 in Caco-2 cell monolayers. It counts as cell-based. The conditions noted are these: 300 µM, 24 and 48 h after treatment. The method, then:
Immunocytochemistry. Immunocytochemistry was performed as previously described (46). Caco-2 cells were transferred into 6-well plates containing collagen-coated cover-slips and grown to 60-70% confluence before use. Cells were treated with C1C2 (300 µM) as well as the control treated without peptide for 24 and 48 h, respectively. The medium was changed, followed by incubation with rabbit anti-claudin-1 and rabbit anti-ZO-1 (zonula occludens protein) antibodies and incubated with Alexa-Fluor 488-conjugated goat anti-rabbit secondary antibody. Cells were analyzed with the confocal microscope.

For assay [5], the target named is T2, claudin-1 (Rattus norvegicus, UniProt P56745).
T2 construct: from tissue; host or cells: sciatic nerve (perineurium) of male Wistar rats
T2 sequence (P56745 1-211): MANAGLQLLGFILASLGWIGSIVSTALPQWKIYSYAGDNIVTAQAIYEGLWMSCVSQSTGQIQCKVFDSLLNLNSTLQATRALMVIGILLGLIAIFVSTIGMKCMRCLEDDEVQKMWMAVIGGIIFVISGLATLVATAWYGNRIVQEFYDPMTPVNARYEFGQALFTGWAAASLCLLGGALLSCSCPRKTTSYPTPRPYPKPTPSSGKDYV
Briefly: Immunohistochemistry of claudin-1 in the sciatic nerve after perineurial injection. The conditions noted are these: 400 µM perineurial injection, after 24 h. It counts as in vivo. The method, then: as §2, §3
The sciatic nerve was embedded in tissue-Tek compound (O.C.T., Miles Inc. Elkhart, Indiana) for claudin-1 staining. Sections (7-10 µm) were mounted onto gelatin-coated slides. Sections were fixed with acetone for 10 min at 4°C, washed in 0.01 M PBS (pH 7.4) for 10 min, incubated for 120 min in PBS containing 1% Triton X-100, washed in 0.01 M PBS and incubated for 30 min in 3% bovine serum albumin plus 1% normal goat serum blocking solution to prevent nonspecific binding. […] Finally, the sections were mounted and analyzed using the laser scanning microscope (Zeiss, Jena, Germany).

Assay [6] deals with T2, claudin-1. In words: Western blot of claudin-1 in sciatic nerve fractions after perineurial injection. It counts as in vivo. The conditions noted are these: 400 µM perineurial injection. Here is the method:
as §2, §3
Western Blot Analysis. […] Extracted protein was diluted in lysis buffer and quantified using the BCA protein assay reagent (Pierce, Rockford, IL, USA) and a plate reader (Tecan, Grödig, Austria). […] Proteins were detected using specific antibodies against claudin-1 (Invitrogen, Carlsbad, CA, USA) and as protein loading control […]-actin (Sigma Aldrich, Taufkirchen, Germany), respectively. Visualization was done by luminescence.
On the technique in general: Immunoblotting shows a protein as a band on a membrane.

Assay [7] deals with HEK-293 cells stably transfected with claudin-1-YFP. Briefly: Confocal microscopy of peptide internalization in claudin-1-YFP expressing HEK-293 cells. It is filed as cell-based, human. To be noted: 40 µM. The method, then: (§4) Cell Culture. Caco-2 (colorectal adenocarcinoma) cells (41) were grown in a humidified atmosphere at 37 °C and 10% CO2, whereas HEK-293 (human embryonic kidney) cells (42) and HEK-293 cells stably transfected with claudin-1-YFP (yellow fluorescence protein) (43) were grown at 37 °C and 5% CO2. Cells were cultured in DMEM (Dulbecco's modified Eagle's medium) containing 10% fetal calf serum, 100 units/ml penicillin, 100 µg/ml streptomycin, and 1% L-analyl-L-glutamine.
(§5) Confocal Microscopy. HEK-293 cells and stably claudin-1-YFP expressing HEK-293 cells were transferred into 6-well plates containing collagen-coated cover-slips as described above and grown to 60-70% confluence. Then, cells were treated with the TAMRA-labeled peptide (40 µM) for 15 min, 35 min, and 24 h, respectively. Pluronic ®F-68 (0.0012%) was added as solution enhancer. After removing of the peptide, cells were analyzed with the LSM 510 Meta confocal microscope (Zeiss, Jena, Germany).

The test system of a further assay is wild type HEK-293 cells. In words: Confocal microscopy of peptide internalization in wild type HEK-293 cells. To be noted: 40 µM, 24 h. It counts as cell-based, human. The method, then: as §4, §5

No end group written: not given here. TAMRA = 5(6)-carboxytetramethylrhodamine

“ESATHSTGITQSDIYSTLLGLPADIQAAQ-NH2 [Peptide C2C2, peptide from the C-terminal part of the ECL1 of rat claudin-2, same modifications as C1C2, applied as negative control, reference compound]”: in the assay on Caco-2 cell monolayers [1] (bilateral treatment, 24 h), the “transcellular electrical resistance (TER)” value was “unaffected”. In addition, in the assay with Caco-2 cell monolayers [2], the “permeation of FD-10” value is “did not influence” and the “permeation of Lucifer Yellow” value was “did not influence”. Besides, in assay [3], the “Mechanical nociceptive thresholds (PPT) after injection of TTX” value was “unchanged”. For the same substance, the “Mechanical nociceptive thresholds (paw pressure threshold, PPT) after injection of DAMGO” value in assay [3] (DAMGO perisciatic 0-4 d after perineurial peptide (400 µM)) is reported as “unchanged”.

In the case of “SSVSQSTGQIQSKVFDSLLNLNSTLQATR-NH2 [Peptide C1C2, 29 amino acid peptide derived from the C-terminal part of the ECL1 of rat claudin-1, Cys54/Cys64 substituted by serines, C-terminally amidated]”, the “transcellular electrical resistance (TER)” value in the assay on Caco-2 cell monolayers [1] (apical treatment) was “significant reduction of the TER, but less efficient then the bilateral treatment”; with Caco-2 cell monolayers [1] (bilateral treatment, 24 h) it was “significant reduction”. For the same substance, the TER entry in the assay with Caco-2 cell monolayers [1] (bilateral application of 100, 200, and 300 µM) was “Time- and concentration-dependent reduction”. In addition, the “recovery of the cell monolayer (barrier integrity) after removing peptide” value with Caco-2 cell monolayers [1] (peptide removed at 48 h, read 24 h later, i.e. after 72 h) is on record as “Complete recovery”. In addition, in the assay with Caco-2 cell monolayers [2], the “permeation of FD-10” value is on record as “increased”. Also, the “permeation of Lucifer Yellow” value in the assay on Caco-2 cell monolayers [2] is listed as “increased”. Also, in the assay with Caco-2 cell monolayers [2], the “Paracellular Permeability” value is given as “↑”. Moreover, the “Mechanical nociceptive thresholds (PPT) after injection of TTX” value in assay [3] is on record as “enhanced the effect of TTX”. The “mechanical nociceptive thresholds before the injection of DAMGO (Baseline)” value in assay [3] (0 h) was found to be 77.67 ± 1.8 g; in assay [3] (24 h) it was 74.67 ± 3.00 g; in assay [3] (48 h), 68.0 ± 2.02 g; in assay [3] (72 h), 69.00 ± 1.861 g; in assay [3] (96 h), 73.3 ± 2.87 g. Further, the “mechanical nociceptive thresholds in contralateral paws” value in assay [3] (0 h) was 77.33 ± 1.3 g; in assay [3] (24 h), 63.33 ± 2.36 g; in assay [3] (48 h), 67.67 ± 2.03 g; in assay [3] (72 h), 65.0 ± 1.25 g; in assay [3] (96 h) it was 67.67 ± 2.09 g. In assay [3] (24 h after perineurial 100 µM peptide, 10 min after 30 µg DAMGO), the “mechanical nociceptive thresholds (PPT) after DAMGO” value is “increase”. In addition, the “PPT after DAMGO” value in assay [3] (48 h after perineurial 400 µM peptide, 10 min after 30 µg DAMGO) was “Significant increases”. Also, in the assay with claudin-1 [4], the “membrane-localized claudin-1” value was “clear decrease”. In addition, in the assay with claudin-1 [5], the “claudin-1 immunoreactivity in the perineurium” value was “decreased”. Further, the “claudin-1 protein expression in the membrane” value with claudin-1 [6] (24 h and 48 h, membrane fraction) is given as “decreased”. Moreover, the “claudin-1 protein expression in the cytosol” value with claudin-1 [6] (cytosol fraction) is reported as “No change”.

For the substance “TAMRA-SSVSQSTGQIQSKVFDSLLNLNSTLQATR-NH2 ({TAMRA}-SSVSQSTGQIQSKVFDSLLNLNSTLQATR-NH2) [TAMRA-C1C2, C1C2 N-terminally labeled with TAMRA (5(6)-carboxytetramethylrhodamine)]”, the “Paracellular Permeability” value in the assay on Caco-2 cell monolayers [2] is on record as “↑”. The “intracellular co-localization with claudin-1-YFP” value in assay [7] is “mainly co-localized”. In addition, in assay [7] (24 h after treatment), the “membrane-localized claudin-1-YFP” value is “decrease”. Further, the internalization entry is on record as “internalized” in assay [7] (15 min, 35 min, 24 h) and “weak unspecific internalization” with wild type HEK-293 cells.
